Reference: ChEMBL document CHEMBL5370569, “Camaldulensals A-C, the First Meroterpenoids Possessing Two Spatially Separated Formyl Phloroglucinols Conjugated to a Terpene Core from the Leaves of Eucalyptus camaldulensis Dehnh” (2023)
In brackets after ≈: the same amount, converted by molar mass.

Legend:
Assay type in all cases: functional
Staphylococcus aureus [1] = experiment: Antibacterial activity against Staphylococcus aureus assessed as bacterial growth inhibtion incubated for 18 hrs by resazurin dye based microdilution assay
Staphylococcus aureus [2] = experiment: Antibacterial activity against Methicillin-resistant Staphylococcus aureus ATCC 43300 assessed as bacterial growth inhibtion incubated for 18 hrs by resazurin dye based microdilution assay
Staphylococcus aureus [3] = experiment: Antibacterial activity against Methicillin-sensitive Staphylococcus aureus ATCC 25923 assessed as bacterial growth inhibtion incubated for 18 hrs by resazurin dye based microdilution assay
Staphylococcus aureus [4] = experiment: Potency index, ratio of eucalrobusone-F MIC to test compound MIC for antibacterial activity against Staphylococcus aureus

SMILES	MIC (Staphylococcus aureus [1]) [µM]	MIC (Staphylococcus aureus [2]) [µM]	MIC (Staphylococcus aureus [3]) [µM]	Ratio (Staphylococcus aureus [4])
CC(C)CC(=O)c1c(O)c(C=O)c(O)c(C[C@H]2CC(C(C)C)=C[C@H]3Oc4c(c(O)c(C=O)c(O)c4C(=O)CC(C)C)C[C@@]23C)c1O	12.6 (≈ 8.02 µg/mL)	12.6 (≈ 8.02 µg/mL)	12.6 (≈ 8.02 µg/mL)	–
Cc1c(O)c(C=O)c(O)c([C@H]2Oc3c(C=O)c(O)c(C(=O)CC(C)C)c(O)c3C[C@@H]2C(C)C)c1O	–	> 65.8	> 65.8	–
CC(C)CC(=O)c1c(O)c(C=O)c(O)c2c1O[C@]1(C)[C@H](C2)C[C@@]2(C(C)C)C[C@H]21	–	> 82.9	> 82.9	–
C=C1CC[C@@H]2[C@H]([C@H]3[C@H]1CC[C@]3(C)Cc1c(O)c(C=O)c(O)c(C(=O)CCC)c1O)C2(C)C	7.1 (≈ 3.13 µg/mL)	–	–	–
C=C(C)[C@@H]1CC[C@@]2(C)[C@H](Cc3c(O)c(C=O)c(O)c(C(=O)CC(C)C)c3O)CC[C@@](C)(O)[C@@H]2C1	19.9 (≈ 9.41 µg/mL)	–	–	–
CC(C)CC(=O)c1c(O)c(C=O)c2c(c1O)C[C@@H]1CC(=O)CC[C@]1(C)O2	–	> 899	> 899	–
CO[C@H]1/C=C/O[C@@]2(C)Oc3c(C)c(O)c4c(O)c(c(/C=N/N5CCN(C)CC5)c(O)c4c3C2=O)NC(=O)/C(C)=C\C=C\[C@H](C)[C@H](O)[C@@H](C)[C@@H](O)[C@@H](C)[C@H](OC(C)=O)[C@@H]1C [RIFAMPIN]	–	0.16 (≈ 0.132 µg/mL)	0.16 (≈ 0.132 µg/mL)	–
CC(C)CC(=O)c1c(O)c(C=O)c(O)c(C[C@H]2CC(C(C)C)=C[C@H]3Oc4c(C=O)c(O)c(C(=O)CC(C)C)c(O)c4C[C@@]23C)c1O	6.3 (≈ 4.01 µg/mL)	6.3 (≈ 4.01 µg/mL)	6.3 (≈ 4.01 µg/mL)	~2
CC(C)C[C@H]1c2c(O)c(C=O)c(O)c(C=O)c2O[C@]2(C)C=CC(=O)C[C@@H]12	–	> 89.4	> 89.4	–
CC(C)CC(=O)c1c(O)c(C=O)c(O)c2c1O[C@H]1[C@H]3[C@@H](CC[C@]4(C)Oc5c(c(O)c(C=O)c(O)c5C(=O)CC(C)C)C[C@H]4CC[C@]1(C)C2)C3(C)C	–	> 45.4	> 45.4	–

Further lines, with some results ahead:

MIC (Staphylococcus aureus [1]) [µM]	SMILES	MIC (Staphylococcus aureus [2]) [µM]	MIC (Staphylococcus aureus [3]) [µM]	Ratio (Staphylococcus aureus [4])
7.4 (≈ 3.5 µg/mL)	CC(C)CC(=O)c1c(O)c(C=O)c(O)c(C[C@@]2(C)CC[C@@H]3[C@@H]2[C@H]2[C@@H](CC[C@@]3(C)O)C2(C)C)c1O [EUCALYPTIN A]	–	–	–
16.8 (≈ 8.24 µg/mL)	CC(C)C[C@@H](c1c(O)c(C=O)c(O)c(C=O)c1O)C1CC[C@@](C)(O)[C@@H]2C[C@H](C(C)(C)O)CC[C@@]12C (some centres not stated)	–	–	–
3.5 (≈ 1.54 µg/mL)	C=C(C)[C@@H]1C=C2[C@@H](C)CC[C@@H](Cc3c(O)c(C=O)c(O)c(C(=O)CCC)c3O)[C@]2(C)CC1	–	–	–
3.3 (≈ 1.56 µg/mL)	CC(C)CC(c1c(O)c(C=O)c(O)c(C=O)c1O)C1(C)CCC2C1C1C(CCC2(C)O)C1(C)C (configuration not stated)	–	–	–
1.7 (≈ 0.803 µg/mL)	CC(C)CC(c1c(O)c(C=O)c(O)c(C=O)c1O)C1(C)/C=C2/CCC2C(C(C)(C)O)CCC1C (configuration not stated)	–	–	–
3.4 (≈ 1.61 µg/mL)	CC(C)CC(c1c(O)c(C=O)c(O)c(C=O)c1O)C1(C)C=C2CCC1C(C(C)(C)O)CCC2C (configuration not stated)	–	–	–
4.7 (≈ 2.14 µg/mL)	C=C(C)[C@@H]1C=C2[C@@H](C)CC[C@@H](Cc3c(O)c(C=O)c(O)c(C(=O)CC(C)C)c3O)[C@]2(C)CC1	–	–	–
16.5 (≈ 8.03 µg/mL)	CC(=O)CC[C@@H]1[C@H]([C@@H]2C[C@@](C)(C(CC(C)C)c3c(O)c(C=O)c(O)c(C=O)c3O)CC2=O)C1(C)C (some centres not stated)	–	–	–
6.9 (≈ 3.14 µg/mL)	C=C1CCC2C(C3C1CCC3(C)C(CC(C)C)c1c(O)c(C=O)c(O)c(C=O)c1O)C2(C)C (configuration not stated)	–	–	–
3.3 (≈ 1.56 µg/mL)	CC(C)CC(c1c(O)c(C=O)c(O)c(C=O)c1O)C1(C)CCC2C1=CC(C(C)(C)O)CCC2C (configuration not stated)	–	–	–
3.3 (≈ 1.56 µg/mL)	CC(C)C[C@@H](c1c(O)c(C=O)c(O)c(C=O)c1O)[C@@]1(C)CC[C@@H]2[C@@H]1[C@H]1[C@@H](CC[C@@]2(C)O)C1(C)C [MACROCARPAL A]	–	–	–
